The source of these data is PubChem BioAssay (NCI).

Among the test systems are SNB-78 CNS; NCI/ADR-RES ovarian; KM20L2 colon; DMS 114 small cell lung; SF-295 CNS; A498 renal; RPMI-8226 leukemia; KM12 colon; UACC-257 melanoma; XF 498 CNS; HOP-18 NSCLC; DMS 273 small cell lung; SK-MEL-28 melanoma; MCF7 breast; M19-MEL melanoma; NCI-H23 lung; ACHN renal; MDA-MB-435; SR leukemia; LXFL 529 NSCLC.
Holding throughout (test): NCI anticancer screen, dose series, 48 h

The structures appear in SMILES notation.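 How tested: cells in 96-well plates exposed to compound for 48 hours at five concentrations. TGI is the concentration that stops growth completely.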

Take `COc1ccccc1Cc1nc(-c2ccccc2)nn(C2OC(COC(C)=O)C(OC(C)=O)C(OC(C)=O)C2OC(C)=O)c1=S` (centres undefined): the TGI was > 70.1 µM in the experiment on SNB-78 CNS; > 100 µM with NCI/ADR-RES ovarian; > 100 µM in the experiment on KM20L2 colon; > 100 µM in the experiment with DMS 114 small cell lung; > 69.4 µM in the experiment on SF-295 CNS; > 56.2 µM in the experiment on A498 renal. Further, the TGI is 80.6 µM in the experiment with RPMI-8226 leukemia; > 100 µM in the experiment on KM12 colon; > 100 µM in the experiment with UACC-257 melanoma; 6.49 µM in the experiment on XF 498 CNS; 97.7 µM in the experiment with HOP-18 NSCLC; > 79.6 µM in the experiment on DMS 273 small cell lung. Besides, the TGI with SK-MEL-28 melanoma is > 100 µM; with MCF7 breast it was 33.9 µM; with M19-MEL melanoma, > 100 µM; in the experiment with NCI-H23 lung it was 42.6 µM.

On to `Cc1cn(Cc2cnnn2CC2OC(n3cc(C)c(=O)[nH]c3=O)CC2O)c(=O)[nH]c1=O` (centres undefined), for which the TGI with NCI/ADR-RES ovarian, in the experiment on SF-295 CNS, with ACHN renal, in the experiment with A498 renal, with RPMI-8226 leukemia and in the experiment with KM12 colon was > 100 µM in each case. In addition, the TGI in the experiment on UACC-257 melanoma, in the experiment with MDA-MB-435, in the experiment on SK-MEL-28 melanoma, in the experiment with MCF7 breast and with NCI-H23 lung was > 100 µM each time.

In the case of `COc1cc2cc[n+]3c(C)c4cc(OC)c(OC)cc4c([O-])c3c2cc1OC`, the TGI in the experiment with SNB-78 CNS was > 100 µM; in the experiment on KM20L2 colon it was > 100 µM; in the experiment on DMS 114 small cell lung, 62.1 µM; in the experiment on SF-295 CNS it was > 100 µM; in the experiment on ACHN renal, > 100 µM; with A498 renal, > 100 µM. In addition, the TGI was > 100 µM in the experiment on SR leukemia; > 100 µM with RPMI-8226 leukemia; > 100 µM in the experiment with KM12 colon; > 100 µM in the experiment with UACC-257 melanoma; 82.1 µM in the experiment on XF 498 CNS; > 100 µM in the experiment on DMS 273 small cell lung. Besides, the TGI in the experiment with SK-MEL-28 melanoma, with M19-MEL melanoma, with NCI-H23 lung and in the experiment on LXFL 529 NSCLC was > 100 µM throughout.

Consider `COc1ccc(C(=O)Cc2ccc(Br)cc2)cc1OC`, for which the TGI in the experiment with SNB-78 CNS, with KM20L2 colon, in the experiment on DMS 114 small cell lung, in the experiment with SF-295 CNS, with ACHN renal and with A498 renal was > 100 µM each time. Also, the TGI with SR leukemia is > 100 µM; in the experiment with RPMI-8226 leukemia, > 100 µM; with UACC-257 melanoma, > 100 µM; with XF 498 CNS, 71 µM; with HOP-18 NSCLC, > 100 µM; with DMS 273 small cell lung, > 100 µM. The TGI in the experiment on M19-MEL melanoma, in the experiment with NCI-H23 lung and in the experiment with LXFL 529 NSCLC was > 100 µM in each case.

In the case of `CCOC(=O)Cc1cc(OC)c(OC)cc1/C(Cl)=C(\C=O)c1ccc(OC)c(OC)c1`, the TGI stood at 81.1 µM with SNB-78 CNS; 35.7 µM in the experiment on KM20L2 colon; 48.8 µM in the experiment with DMS 114 small cell lung; 29 µM in the experiment with SF-295 CNS; 55.6 µM with ACHN renal; 43.1 µM in the experiment with RPMI-8226 leukemia. Further, the TGI in the experiment on UACC-257 melanoma was determined as 32.9 µM; in the experiment on XF 498 CNS, 46.2 µM; with HOP-18 NSCLC it was 75.4 µM; in the experiment on DMS 273 small cell lung, 44.3 µM; in the experiment on SK-MEL-28 melanoma, 65.7 µM; in the experiment with M19-MEL melanoma, 55.6 µM. Besides, the TGI in the experiment on NCI-H23 lung was 51.2 µM.

For the compound `COc1cc(C(C)c2cc3c(cc2OCCO)OCO3)cc(OC)c1OC` (centres undefined), the TGI was > 100 µM in the experiment with SNB-78 CNS; 3.77 µM with DMS 114 small cell lung; 2.24 µM with SF-295 CNS; > 100 µM with ACHN renal; 0.932 µM in the experiment on SR leukemia; > 100 µM with RPMI-8226 leukemia. In addition, the TGI in the experiment with UACC-257 melanoma was > 100 µM; with XF 498 CNS, 5.33 µM; with HOP-18 NSCLC, > 100 µM; in the experiment with DMS 273 small cell lung, > 100 µM; in the experiment on M19-MEL melanoma it was > 100 µM; in the experiment with LXFL 529 NSCLC, > 100 µM.

For `Cc1nc2c(sc(=S)n2-c2ccccc2)c(=O)[nH]1`, the TGI with SF-295 CNS, with ACHN renal, in the experiment on A498 renal, with SR leukemia, with RPMI-8226 leukemia and in the experiment on KM12 colon was > 100 µM in each case. Moreover, the TGI in the experiment with UACC-257 melanoma, in the experiment on HOP-18 NSCLC, in the experiment with SK-MEL-28 melanoma, in the experiment on NCI-H23 lung and with LXFL 529 NSCLC was > 100 µM each time.

In the case of `NCCCN(CCCN)CCN(CCN(CCCN)CCCN)CCN(CCCN)CCCN`, the TGI with NCI/ADR-RES ovarian, with SF-295 CNS, in the experiment with ACHN renal, in the experiment on SR leukemia, with RPMI-8226 leukemia and in the experiment on UACC-257 melanoma was > 100 µM each time. Besides, the TGI with MDA-MB-435, in the experiment with SK-MEL-28 melanoma, in the experiment with MCF7 breast and in the experiment with NCI-H23 lung was > 100 µM each time.
